Earlier results, collected in patent publication US20260229307A1, “CLEAVED NEOEPITOPES” (IOGENETICS, LLC, priority 2023, published 2026).

Key:
[1] = relative to E64
[2] = human muscular dystrophy trial

Q: With CCOC(=O)[C@H]1O[C@@H]1C(=O)N[C@@H](CC(C)C)C(=O)NCCC(C)C [aloxistatin] as the molecule, how does the “cell permeability and adsorption” value [1] read?
A: Its value is “improved cell permeability and adsorption”.

Q: And the safety in humans [2]?
A: Its safety in humans is “demonstrate the safety”.
